Assay results as given in US20150105252A1, “SUBSTITUTED PYRAZOLES AS HERBICIDES” (E I DU PONT DE NEMOURS AND COMPANY, priority 2013, published 2015).

Columns and labels:
waterhemp [1] = experiment: Test C preemergence; assay type: in vivo, Amaranthus rudis
Summary of the method: (§1)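 Visual control ratings on a 0–100 scale (100 = complete control) made against untreated controls after 13 to 15 days in greenhouse. Compounds applied in surfactant-containing solvent mixture, either preemergence to loam/sand-sown seeds or postemergence to 1- to 4-leaf plants (2–18 cm) in peat medium.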

waterhemp [2] = experiment: Test C postemergence; assay type: in vivo, Amaranthus rudis; conditions: for Waterhemp plant response rating / Plant response rating, Waterhemp: postemergence; for Waterhemp plant response rating: 62 g ai/ha, scale 0 to 100
Description: Seeds of plant species selected from blackgrass (Alopecurus myosuroides), ryegrass, Italian (Italian ryegrass, Lolium multiflorum), wheat (winter wheat, Triticum aestivum), galium (catchweed bedstraw, Galium aparine), corn (Zea mays), crabgrass, large (large crabgrass, Digitaria sanguinalis), foxtail, giant (giant foxtail, Setaria faberii), johnsongrass (Sorghum halepense), lambsquarters (Chenopodium album), morningglory (Ipomoea coccinea), nutsedge, yellow (yellow nutsedge, Cyperus esculentus), pigweed (redroot pigweed, Amaranthus retroflexus), ragweed (common ragweed, Ambrosia elation), soybean (Glycine max), barnyardgrass (Echinochloa crus-galli), oilseed rape (Brassica napus), waterhemp (common waterhemp, Amaranthus rudis), oat, wild (wild oat, Avena fatua), kochia (Kochia scoparia), Surinam grass (Brachiaria decumbens), foxtail, green (green foxtail, Setaria viridis), goosegrass (Eleusine indica), bromegrass, downy (downy bromegrass, Bromus tectorum), nightshade (eastern black nightshade, Solanum ptycanthum), cocklebur (common cocklebur, Xanthium strumarium), cupgrass, woolly (woolly cupgrass, Eriochloa villosa), bermudagrass (Cynodon dactylon), sunflower, (common oilseed sunflower, Helianthus annuus), Russian thistle (Salsola kali), and velvetleaf (Abutilon theophrasti) were planted into a blend of loam soil and sand and treated preemergence with test chemicals formulated in a non-phytotoxic solvent mixture which included a surfactant.
At the same time, plants selected from these crop and weed species and also chickweed (common chickweed, Stellaria media), canarygrass (littleseed canarygrass, Phalaris minor), and deadnettle (henbit deadnettle, Lamium amplexicaule), were planted in pots containing Redi-Earth® planting medium (Scotts Company, 14111 Scottslawn Road, Marysville, Ohio 43041) comprising spaghnum peat moss, vermiculite, wetting agent and starter nutrients and treated with postemergence applications of test chemicals formulated in the same manner. Plants ranged in height from 2 to 18 cm (1- to 4-leaf stage) for postemergence treatments. Treated plants and controls were maintained in a greenhouse for 13 to 15 days, after which time all species were compared to controls and visually evaluated. Plant response ratings, summarized in Table C, are based on a scale of 0 to 100 where 0 is no effect and 100 is complete control. A dash (-) response means no test result.

lambsquarters = experiment: Test C postemergence; assay type: in vivo, Chenopodium album; conditions: for Lambsquarters plant response rating: scale 0 to 100
Summary of the method: as §1

foxtail, giant = experiment: Test C preemergence; assay type: in vivo, Setaria faberii
Summary of the method: as §1

crabgrass, large = experiment: Test C preemergence; assay type: in vivo, Digitaria sanguinalis
Summary of the method: as §1

ragweed = experiment: Test C preemergence; assay type: in vivo, Ambrosia elation
Summary of the method: as §1

wheat = experiment: Test A preemergence; assay type: in vivo, Triticum aestivum; conditions: preemergence
Summary of the method: (§2)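 Growth medium: loam soil blended with sand. Preemergence treatment used a directed soil spray right after planting; postemergence treatment targeted seedlings at one to two leaves (2–10 cm height). Response was judged by eye relative to untreated plants about 10 days later on a 0–100 control scale.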

nutsedge, yellow = experiment: Test C preemergence; assay type: in vivo, Cyperus esculentus; conditions: for Nutsedge, Yellow plant response rating / Plant response rating, Nutsedge, Yellow: preemergence; for Plant response rating, Nutsedge, Yellow: 62 g ai/ha, scale 0 to 100, 0 = no effect, 100 = complete control
Summary of the method: as §1

pigweed = experiment: Test A postemergence; assay type: in vivo, Amaranthus retroflexus
Summary of the method: as §2

ryegrass, Italian = experiment: Test C postemergence; assay type: in vivo, Lolium multiflorum; conditions: for Ryegrass, Italian plant response rating / Plant response rating, Ryegrass, Italian: postemergence; for Ryegrass, Italian plant response rating: 62 g ai/ha, scale 0 to 100
Summary of the method: as §1

ducksalad = experiment: Test B flood; assay type: in vivo, Heteranthera limosa; conditions: 250 g ai/ha, visual rating on 0 to 100 scale (0 no effect, 100 complete control), 13 to 15 days
Summary of the method: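 Two-leaf-stage plants, pots flooded (3 cm above soil) and treated through the water, which stayed at that depth. After 13–15 days in greenhouse conditions, visual assessment versus controls: 0 is no effect, 100 complete control, dash means no result.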

corn = experiment: Test C postemergence; assay type: in vivo, Zea mays; conditions: for Corn plant response rating: scale 0 to 100; for Plant response rating, Corn: 125 g ai/ha, scale 0 to 100, 0 no effect, 100 complete control
Summary of the method: as §1

[3] = Preemergence, 16 g ai/ha, scale 0 to 100
[4] = preemergence, 31 g ai/ha, scale 0 to 100 (0 no effect, 100 complete control), 13 to 15 days
[5] = preemergence, 62 g ai/ha, 13 to 15 days, scale 0 to 100, 0 = no effect, 100 = complete control
[6] = preemergence, 125 g ai/ha, scale 0 to 100, 0 is no effect, 100 is complete control
[7] = 125 g ai/ha, scale 0 to 100, 0 no effect, 100 complete control
[8] = postemergence, 125 g ai/ha, scale 0 to 100, 0 no effect, 100 complete control
[9] = 125 g ai/ha, visual injury, 0 to 100 scale, approx. 10 days
[10] = 500 g ai/ha, visual injury after approx. 10 days, 0 to 100 scale (0 no effect, 100 complete control)
[11] = 31 g ai/ha, scale 0 to 100 (0 no effect, 100 complete control), 13 to 15 days
[12] = 125 g ai/ha, scale 0 to 100, 0 is no effect, 100 is complete control
[13] = Postemergence, 500 g ai/ha, visual rating after approx. 10 days, 0 to 100 scale (0 no effect, 100 complete control)
[14] = postemergence, 125 g ai/ha, about 10 days, visual rating on 0 to 100 scale (0 no effect, 100 complete control)
[15] = Postemergence, 31 g ai/ha, visually evaluated after 13 to 15 days
[16] = 250 g ai/ha, scale 0 to 100 (0 no effect, 100 complete control)

SMILES: CCCNC(=O)c1cc(CC)n(Cc2ccnc(C(F)(F)F)c2)n1 [Compound 75]
- Plant response rating, Waterhemp (waterhemp [1]; [3]): 80
- Waterhemp plant response rating (waterhemp [1]; [4]): 100
- Plant response rating, Waterhemp (waterhemp [1]; [5]): 100
- Waterhemp plant response rating (waterhemp [1]; [6]): 100
- Waterhemp plant response rating (waterhemp [2]): 45
- Plant response rating, Waterhemp (waterhemp [2]; [7]): 75
- Plant response rating (scale of 0 to 100), Lambsquarters (lambsquarters; Postemergence, 16 g ai/ha): 70
- Lambsquarters plant response rating (lambsquarters; Postemergence, 31 g ai/ha): 70
- Lambsquarters plant response rating (lambsquarters; postemergence, 62 g ai/ha): 85
- Plant response rating, Lambsquarters (lambsquarters; [8]): 90
- Plant response rating, Foxtail, Giant (foxtail, giant; [3]): 80
- Foxtail, Giant plant response rating (foxtail, giant; [4]): 85
- Plant response rating, Foxtail, Giant (foxtail, giant; [5]): 100
- Foxtail, Giant plant response rating (foxtail, giant; [6]): 100
- Plant response rating, Crabgrass, Large (crabgrass, large; [3]): 100
- Crabgrass, Large plant response rating (crabgrass, large; [4]): 100
- Plant response rating, Crabgrass, Large (crabgrass, large; [5]): 100
- Crabgrass, Large plant response rating (crabgrass, large; [6]): 100
- Plant response rating, Ragweed (ragweed; [3]): 70
- Ragweed plant response rating (ragweed; [4]): 90
- Plant response rating, Ragweed (ragweed; [5]): 90
- Ragweed plant response rating (ragweed; [6]): 100
- Wheat plant response rating (wheat; [9]): 80
- Wheat plant response rating (wheat; [10]): 100
- Nutsedge, Yellow plant response rating (nutsedge, yellow; [11]): 55
- Plant response rating, Nutsedge, Yellow (nutsedge, yellow; 13 to 15 days): 75
- Nutsedge, Yellow plant response rating (nutsedge, yellow; [12]): 85
- Pigweed plant response rating (pigweed; [13]): 100
- Pigweed plant response rating (pigweed; [14]): 100
- Plant response rating (scale of 0 to 100), Ryegrass, Italian (ryegrass, Italian; Postemergence, 16 g ai/ha): 5
- Ryegrass, Italian plant response rating (ryegrass, Italian): 5
- Plant response rating, Ryegrass, Italian (ryegrass, Italian; [7]): 10
- Plant response rating, Ducksalad (ducksalad): 85
- Plant response rating (scale of 0 to 100), Corn (corn; Postemergence, 16 g ai/ha): 0
- Corn plant response rating (corn; Postemergence, 31 g ai/ha): 5
- Corn plant response rating (corn; postemergence, 62 g ai/ha): 20
- Plant response rating, Corn (corn; postemergence): 40

SMILES: CCc1cc(C(=O)NC2CC2)nn1Cc1ccnc(C(F)(F)F)c1 [Compound 76]
- Plant response rating (scale of 0 to 100), Waterhemp (waterhemp [1]; Preemergence, 250 g ai/ha): 100
- Waterhemp plant response rating (waterhemp [1]; [4]): 98
- Plant response rating, Waterhemp (waterhemp [1]; [5]): 100
- Waterhemp plant response rating (waterhemp [1]; [6]): 100
- Plant response rating (scale of 0 to 100 where 0 is no effect and 100 is complete control), Waterhemp (waterhemp [2]; [15]): 60
- Waterhemp plant response rating (waterhemp [2]): 70
- Plant response rating, Waterhemp (waterhemp [2]; [16]): 100
- Plant response rating, Waterhemp (waterhemp [2]; [7]): 75
- Plant response rating (scale of 0 to 100 where 0 is no effect and 100 is complete control), Lambsquarters (lambsquarters; [15]): 75
- Lambsquarters plant response rating (lambsquarters; postemergence, 62 g ai/ha): 75
- Plant response rating, Lambsquarters (lambsquarters; postemergence, 250 g ai/ha, scale 0 to 100 (0 no effect, 100 complete control)): 85
- Plant response rating, Lambsquarters (lambsquarters; [8]): 85
- Plant response rating (scale of 0 to 100), Foxtail, Giant (foxtail, giant; Preemergence, 250 g ai/ha): 100
- Foxtail, Giant plant response rating (foxtail, giant; [4]): 100
- Plant response rating, Foxtail, Giant (foxtail, giant; [5]): 100
- Foxtail, Giant plant response rating (foxtail, giant; [6]): 100
- Plant response rating (scale of 0 to 100), Crabgrass, Large (crabgrass, large; Preemergence, 250 g ai/ha): 100
- Crabgrass, Large plant response rating (crabgrass, large; [4]): 100
- Plant response rating, Crabgrass, Large (crabgrass, large; [5]): 100
- Crabgrass, Large plant response rating (crabgrass, large; [6]): 100
- Plant response rating (scale of 0 to 100), Ragweed (ragweed; Preemergence, 250 g ai/ha): 100
- Ragweed plant response rating (ragweed; [4]): 90
- Plant response rating, Ragweed (ragweed; [5]): 100
- Ragweed plant response rating (ragweed; [6]): 100
- Wheat plant response rating (wheat; [9]): 30
- Wheat plant response rating (wheat; [10]): 90
- Plant response rating (scale of 0 to 100), Nutsedge, Yellow (nutsedge, yellow; Preemergence, 250 g ai/ha): 98
- Nutsedge, Yellow plant response rating (nutsedge, yellow; [11]): 40
- Plant response rating, Nutsedge, Yellow (nutsedge, yellow; 13 to 15 days): 70
- Nutsedge, Yellow plant response rating (nutsedge, yellow; [12]): 90
- Pigweed plant response rating (pigweed; [13]): 100
- Pigweed plant response rating (pigweed; [14]): 100
- Plant response rating (scale of 0 to 100 where 0 is no effect and 100 is complete control), Ryegrass, Italian (ryegrass, Italian; [15]): 5
- Ryegrass, Italian plant response rating (ryegrass, Italian): 5
- Plant response rating, Ryegrass, Italian (ryegrass, Italian; [16]): 10
- Plant response rating, Ryegrass, Italian (ryegrass, Italian; [7]): 5
- Plant response rating, Ducksalad (ducksalad): 85
- Plant response rating (scale of 0 to 100 where 0 is no effect and 100 is complete control), Corn (corn; [15]): 5
- Corn plant response rating (corn; postemergence, 62 g ai/ha): 10
- Plant response rating, Corn (corn; postemergence): 20
